Experimental data from PubChem BioAssay AID588780 (Sanford-Burnham Center for Chemical Genomics, 2011).
Activity calls are given as the source filed them.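 How the source made its calls: active means compounds whose fitted half-maximal concentration in the cell-protection dose series is at or below a set limit; inactive means the rest.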

tested on: H9c2 cardiomyocytes, 2-deoxyglucose stress, ATP luminescence, 2 h; assay: protection of cardiomyocytes from 2-deoxyglucose injury, dose response, cell-based, 2-deoxyglucose stress, uHTS hits (AID 588780)

Compound	IC50
Brc1ccc(-c2nn3c(-c4ccco4)nnc3s2)o1	20 µM
Nc1c(C(=O)N/N=C/c2cccnc2)oc2nc(-c3ccccc3)cc(-c3ccco3)c12	> 79 µM (inactive)
O=C(CNC(=O)c1cccc(F)c1)N/N=C/c1cc(Br)ccc1OC(=O)/C=C/c1ccco1	> 79 µM (inactive)
O=C(Nc1ccc(C(=O)N2CCOCC2)cc1)c1cnn2c(C(F)F)cc(-c3ccccc3)nc12	> 79 µM (inactive)
Cc1nn(Cc2ccc(C(=O)N3CCN(C(=O)c4ccco4)CC3)o2)c(C)c1[N+](=O)[O-]	> 79 µM (inactive)
CCN(CC)c1ccc(C2C(C(=O)OC(C)C)C(=O)CC(C)(O)C2C(=O)OC(C)C)cc1 (stereo not drawn)	18.2 µM
CC1CN(c2nn3c(=O)c4ccccc4nc3c3ccccc23)CC(C)O1 (stereo not drawn)	> 79 µM (inactive)
CCc1nc2ccc(C(=O)NCc3cccs3)cn2c1N(C)Cc1nccs1	22.4 µM
Cc1ccccc1C1c2[nH]c3ccccc3c2C[C@H]2C(=O)N(c3ccccc3C(=O)NCCCN3CCOCC3)C(=O)N12 (stereo partly drawn)	27.1 µM
COC(=O)c1ccc2c(=O)[nH]c(COC(=O)c3[nH]c(C)c(C(C)=O)c3C)nc2c1	> 79 µM (inactive)
O=C(CN1C(=O)C2C3C=CC(C3)C2C1=O)Nc1nc(-c2ccccn2)cs1 (stereo not drawn)	29 µM
CC(C)C1Nc2ccc(C(=O)N3CCN(c4ccccn4)CC3)cc2NC1=O (stereo not drawn)	> 79 µM (inactive)
COCCn1c(=NC(=O)c2nc3ccccc3s2)sc2cc(S(C)(=O)=O)ccc21	28.3 µM
Cc1[nH]c(-c2ccccn2)nc(=S)c1Cl	> 79 µM (inactive)
Cc1c(OCC(=O)NCCN2CCOCC2)ccc2c1oc(=O)c1ccccc12	10.9 µM
Oc1ccc2oc3c(c2c1C=NCc1ccncc1)CCCC3	> 79 µM (inactive)
CC(C)(C)OC(=O)NCC12C=CC(O1)C1C(=O)N(Cc3ccccc3)C(=O)C12 (stereo not drawn)	> 79 µM (inactive)
COC(=O)c1cc2c(C)c(C)c3ccccn3c-2c1C(=O)OC	> 79 µM (inactive)
Cc1cc(C)cc(OCC(=O)Nc2cccc(-c3nnc(-c4ccco4)o3)c2)c1	> 79 µM (inactive)
O=C(N/N=C/c1cn(-c2ccccc2)nc1-c1cccnc1)c1cccnc1	> 79 µM (inactive)
COc1ccc(OC)c(Nc2nc(N)c([N+](=O)[O-])c(N3CCOCC3)n2)c1	20.9 µM
COc1ccc(-c2ccc(Nc3ccc(S(=O)(=O)N4CCCC4)cc3)nn2)cc1OC	25 µM
COc1cc(-c2nnc(-c3ccc(N4CCOCC4)cc3)o2)cc(OC)c1OC	> 79 µM (inactive)
Cc1nnc2ccc(-c3cccc(NC(=O)c4ccc(Cl)nc4)c3)nn12	22.1 µM

Compound	IC50
CCOc1ccc(C(C(=O)NC2CCCC2)N(C(=O)c2snc(C(N)=O)c2N)c2cccc(O)c2)cc1 (stereo not drawn)	> 79 µM (inactive)
COc1ccc(NC(=O)CCc2nc3ccccc3c(=O)[nH]2)cc1S(=O)(=O)N1CCCCC1	> 79 µM (inactive)
COc1ccc(-c2ccc3[nH]c4c(c3c2)CCN2C[C@H]3[C@H](C)ON(C)[C@H]3C[C@@H]42)cc1	46.8 µM (inactive)
Cc1ccc(CNC(=O)CCc2nc3ccccc3c(=O)[nH]2)cc1	13.9 µM
Cc1cc2[nH]c(=O)c3ccccc3n2n1	> 79 µM (inactive)
O=C(CNC(=O)c1ccccc1F)N/N=C/c1cc(Br)ccc1OC(=O)/C=C/c1ccco1	> 79 µM (inactive)
COc1ccc(C=NNc2nc3c([nH]2)c(=O)n(C)c(=O)n3C)cc1	> 79 µM (inactive)
COc1ccc(-c2cc(NC(C)=O)c3ncc(-c4ccc(OC)c(OC)c4)n3c2)cc1OC	> 79 µM (inactive)
O=C(NC1CCCCC1)C(c1ccc2ncccc2c1)N(Cc1ccco1)C(=O)c1ccc2c(c1)OCCO2 (stereo not drawn)	31.4 µM (inactive)
CCC(Oc1ccccc1)C(=O)Nc1ccccc1C(=O)N1CCCCC1 (stereo not drawn)	25.3 µM
COc1cccc(-c2nn(-c3ccccc3)cc2C(=O)Nc2nccs2)c1	> 79 µM (inactive)
COc1ccc(-c2cc(C(=O)N(C)Cc3ccccc3F)c3ccccc3n2)cc1OC	> 79 µM (inactive)
CCOC(=O)[C@H]1[C@H]2COc3ccc(Br)cc3[C@@H]2N2C(=O)c3cc(OC)c(OC)cc3NC(=O)[C@@]12C	40 µM (inactive)
COc1cc(-c2cc(NC(C)=O)c3ncc(-c4ccc(F)cc4)n3c2)cc(OC)c1OC	> 79 µM (inactive)
Cn1c(=O)c2c(nc(NCc3ccc4c(c3)OCO4)n2C)n(C)c1=O	> 79 µM (inactive)
CCN(CC)S(=O)(=O)c1ccc(N2CCOCC2)c(NC(=O)c2cc(-c3ccccn3)nc3ccccc23)c1	> 79 µM (inactive)
COCCn1ccc2c(OCC(=O)Nc3ccccc3OC)cccc2c1=O	20.8 µM
O=C1c2ccccc2NC(c2ccc(Cl)cc2Cl)N1O (stereo not drawn)	35 µM (inactive)
CCOc1cc(/C=C/c2nc3ccccc3c(=O)[nH]2)ccc1O	> 79 µM (inactive)
Cc1ccc(-c2n[nH]c(=O)c3ccccc23)cc1S(=O)(=O)Nc1ccccc1	> 79 µM (inactive)
COc1cc(C(=O)Nc2cc3c(cc2N2CCCCC2)n(C)c(=O)n3C)cc(OC)c1OC	25.4 µM
Cc1csc2nc(COC(=O)c3ccc(Cl)c([N+](=O)[O-])c3)cc(=O)n12	> 79 µM (inactive)
CC(C)(C)OC(=O)NCCCCCNC(=O)c1[nH]cnc1C(=O)Nc1cc(Br)ccc1F	> 79 µM (inactive)
Cc1c(N=Cc2cc(Br)cc(Br)c2O)cccc1C(=O)O	> 79 µM (inactive)

Compound	IC50
CCOc1cc(/C=N\NC(=O)c2ccc(NC(=O)C(C)(C)C)cc2)ccc1OC(=O)c1cccc(C)c1	15.3 µM
Cc1ccc(N2CC(C(=O)NCc3n[nH]c(=O)c4ccccc34)CC2=O)cc1C (stereo not drawn)	> 79 µM (inactive)
O=C(Nc1cccc(/C=C/c2ccccn2)c1)c1ccc(-n2cncn2)cc1	42.9 µM (inactive)
CCOC(=O)c1c(C)[nH]c(O)c1C=Nc1ccc(Cl)cc1	> 79 µM (inactive)
CCCNC(=O)c1c(N)n(-c2cccc(OC)c2)c2nc3ccccc3nc12	> 79 µM (inactive)
Cc1ccc(OCCOC(=O)CCc2nc3ccccc3c(=O)[nH]2)cc1	> 79 µM (inactive)
Cc1ccc(NC(=O)c2cc(=O)c3ccccc3o2)cc1S(=O)(=O)N1CCOCC1	35.4 µM (inactive)
COc1cccc(C(c2nnnn2Cc2ccccc2)N2CCN(C3CCCC3)CC2)c1OC (stereo not drawn)	35.5 µM (inactive)
CC(=O)Nc1ccc(C(=O)Nc2nc(-c3ccccn3)cs2)cc1	32.1 µM (inactive)
Cc1ccccc1NP(=O)(Oc1ccccc1F)Oc1ccccc1F	24.8 µM
COc1ccc(-c2csc(NC(=O)c3ccc(OCC(=O)N4CCOCC4)c(OC)c3)n2)cc1OC	> 79 µM (inactive)
COc1cccc(-c2cnc3c(NC=O)cc(-c4cc(C)c(O)c(C)c4)cn23)c1	10.2 µM
CCOc1ccc(C(C(=O)NCC2CCCO2)N(C(=O)c2snc(C(N)=O)c2N)c2ccccc2F)cc1 (stereo not drawn)	20.6 µM
COC(=O)/C(=C(O)\C=C\c1ccccc1[N+](=O)[O-])c1nc2ccccc2[nH]1	> 79 µM (inactive)
O=C(N/N=C/c1ccccn1)c1[nH]c2ccc([N+](=O)[O-])cc2c1-c1ccccc1	13.2 µM
Cc1ccc(-c2csc(NC(=O)Cn3[nH]c(=O)c4ccccc4c3=O)n2)cc1	13.8 µM
O=C(NC1CCCCC1)C(c1ccc2ncccc2c1)N(Cc1ccccc1)C(=O)c1ccc2c(c1)OCCO2 (stereo not drawn)	32 µM (inactive)
O=C(CSc1nnc(Cc2cccs2)n1CCc1ccccc1)N1CCCc2ccccc21	> 79 µM (inactive)
COc1ccc(OC)c(C2CC(=O)c3c([nH]c(C(=O)OCC4CCCO4)c3C)C2)c1 (stereo not drawn)	> 79 µM (inactive)
Cc1nn(-c2ccccc2)c(C)c1/C=N/NC(=O)c1cc(C2CC2)[nH]n1	12.5 µM
O=C(CC(C(=O)c1ccccc1)c1ccccc1)c1ccccc1 (stereo not drawn)	12.6 µM
COc1ccc(/C=N/NC(=O)c2ccn[nH]2)cc1COc1ccc(Cl)cc1	> 79 µM (inactive)
Cc1ccc2c(c1)nc1c3ccccc3nc(-c3ccccc3N)n21	> 79 µM (inactive)
COc1cc(C(=O)N/N=C/c2ccc(OC(=O)c3ccccc3Cl)cc2)ccc1O	> 79 µM (inactive)

Compound	IC50
CCOC(=O)c1cc(-c2ccc(/C=N\n3cnnc3)o2)ccc1Cl	> 79 µM (inactive)
c1ccc(CN2CCN(CCCNc3ccc4nnc(-c5ccccc5)n4n3)CC2)cc1	13.8 µM
Cc1cc(C)c2ccc(N)nc2c1O	> 79 µM (inactive)
CCc1nnc(NC(=O)CCC(=O)N2CCN(C3c4ccccc4-c4ccccc43)CC2)s1	> 79 µM (inactive)
O=C1C=C(N2CCOCC2)c2cccc3cccc1c23	> 79 µM (inactive)
COc1ccc(-c2cc3nc(C)cc(N4CCN(C(=O)c5ccoc5)CC4)n3n2)cc1	51.7 µM (inactive)
CC1Cc2ccccc2N1C(=O)Cn1nc(C(=O)O)c2ccccc2c1=O (stereo not drawn)	> 79 µM (inactive)
O=C(CCn1c(=O)oc2ccccc21)N(Cc1ccccc1)c1ccccc1	> 79 µM (inactive)
CCCNC(=O)c1ccc(N2CCC3(CC2)CC(c2ccccc2)=NO3)c(NC(=O)c2ccco2)c1	> 79 µM (inactive)
COc1ccc(C(=O)Nc2cccc(NC(=O)c3ccc(OC)c(OC)c3)n2)cc1OC	> 79 µM (inactive)
COc1cc(-c2nnc(-c3cc(OC)c(OC)c(OC)c3)o2)cc(OC)c1OC	> 79 µM (inactive)
CN(C)C(=O)CSc1nc2ccccc2c(=O)[nH]1	> 79 µM (inactive)
CCOC(=O)Cc1csc(SCc2cc(=O)oc3cc(O)ccc23)n1	51.9 µM (inactive)
Cc1cccc(NC(=O)c2cc(-c3ccco3)nc3ccccc23)n1	> 79 µM (inactive)
COc1ccc(/C=N/NC(=O)c2cc(OC)c(OC)c(OC)c2)cc1CN1CCc2cc(OC)c(OC)cc2C1C (stereo not drawn)	> 79 µM (inactive)
Cc1cc(NC(=O)COC(=O)COc2ccc3c4c(c(=O)oc3c2)CCC4)no1	> 79 µM (inactive)
CNC(=O)c1ccc(-c2sc3nc(N4CCOCC4)c4c(c3c2N)CCCC4)o1	> 79 µM (inactive)
COc1ccc(CC(=O)N(Cc2ccccc2)c2ccccc2)cc1S(=O)(=O)N1CCOCC1	> 79 µM (inactive)
O=C1[C@H]2[C@@H](c3ccc(C(F)(F)F)cc3)N[C@]3(CCCN(Cc4ccc(F)cc4)C3=O)[C@H]2C(=O)N1Cc1ccccc1	> 79 µM (inactive)
O=C(CCCSc1ccccc1)Nc1nc(-c2ccccn2)cs1	> 79 µM (inactive)
O=C(CCc1nc2ccccc2c(=O)[nH]1)N1CCN(S(=O)(=O)c2cc(Cl)ccc2Cl)CC1	> 79 µM (inactive)
